This is an account of results in ChEMBL document CHEMBL2074182, “Influence of antipsychotic, antiemetic, and Ca(2+) channel blocker drugs on the cellular accumulation of the anticancer drug daunorubicin: P-glycoprotein modulation” (J Pharmacol Exp Ther, 2000).

As a reminder, the inhibition is how much of the control response was suppressed. A high value points to strong suppression.

Holding throughout (assay type): functional, cell-based
In series [1] the target is T1, MDR1 (P-glycoprotein, ABCB1) (Homo sapiens, UniProt P08183). As to the kind of experiment: TP_TRANSPORTER: increase in Rhodamine 123 intracellular accumulation (R123: 150 uM, Bepridil: 5 ug/mL) in MDR1-expressing NIH3T3 cells. As to conditions: mouse, probe Rhodamine 123 (150 uM).
Series [2] deals with T2, ATP-dependent translocase ABCB1 (Homo sapiens, UniProt P08183). As to the kind of experiment: TP_TRANSPORTER: increase in Rhodamine 123 intracellular accumulation (R123: 150 uM, Chlorpromazine: 2.5 ug/mL) in MDR1-expressing NIH3T3 cells. Conditions: mouse.
In series [3] the target is T1, MDR1 (P-glycoprotein, ABCB1). As to the kind of experiment: TP_TRANSPORTER: increase in Rhodamine 123 intracellular accumulation (R123: 150 uM, Nicardipine: 2 ug/mL) in MDR1-expressing NIH3T3 cells. As to conditions: mouse, probe Rhodamine 123 (150 uM).
Series [4] addresses T2, ATP-dependent translocase ABCB1. As to the kind of experiment: TP_TRANSPORTER: increase in Rhodamine 123 intracellular accumulation (R123: 150 uM, Prochloperazine: 5 ug/mL) in MDR1-expressing NIH3T3 cells. Conditions: mouse.
The target is the same in series [5]. As to the kind of experiment: TP_TRANSPORTER: increase in Rhodamine 123 intracellular accumulation (R123: 150 uM, Promethazine: 20 ug/mL) in MDR1-expressing NIH3T3 cells. As to conditions: mouse.

T2 sequence (P08183 whole entry): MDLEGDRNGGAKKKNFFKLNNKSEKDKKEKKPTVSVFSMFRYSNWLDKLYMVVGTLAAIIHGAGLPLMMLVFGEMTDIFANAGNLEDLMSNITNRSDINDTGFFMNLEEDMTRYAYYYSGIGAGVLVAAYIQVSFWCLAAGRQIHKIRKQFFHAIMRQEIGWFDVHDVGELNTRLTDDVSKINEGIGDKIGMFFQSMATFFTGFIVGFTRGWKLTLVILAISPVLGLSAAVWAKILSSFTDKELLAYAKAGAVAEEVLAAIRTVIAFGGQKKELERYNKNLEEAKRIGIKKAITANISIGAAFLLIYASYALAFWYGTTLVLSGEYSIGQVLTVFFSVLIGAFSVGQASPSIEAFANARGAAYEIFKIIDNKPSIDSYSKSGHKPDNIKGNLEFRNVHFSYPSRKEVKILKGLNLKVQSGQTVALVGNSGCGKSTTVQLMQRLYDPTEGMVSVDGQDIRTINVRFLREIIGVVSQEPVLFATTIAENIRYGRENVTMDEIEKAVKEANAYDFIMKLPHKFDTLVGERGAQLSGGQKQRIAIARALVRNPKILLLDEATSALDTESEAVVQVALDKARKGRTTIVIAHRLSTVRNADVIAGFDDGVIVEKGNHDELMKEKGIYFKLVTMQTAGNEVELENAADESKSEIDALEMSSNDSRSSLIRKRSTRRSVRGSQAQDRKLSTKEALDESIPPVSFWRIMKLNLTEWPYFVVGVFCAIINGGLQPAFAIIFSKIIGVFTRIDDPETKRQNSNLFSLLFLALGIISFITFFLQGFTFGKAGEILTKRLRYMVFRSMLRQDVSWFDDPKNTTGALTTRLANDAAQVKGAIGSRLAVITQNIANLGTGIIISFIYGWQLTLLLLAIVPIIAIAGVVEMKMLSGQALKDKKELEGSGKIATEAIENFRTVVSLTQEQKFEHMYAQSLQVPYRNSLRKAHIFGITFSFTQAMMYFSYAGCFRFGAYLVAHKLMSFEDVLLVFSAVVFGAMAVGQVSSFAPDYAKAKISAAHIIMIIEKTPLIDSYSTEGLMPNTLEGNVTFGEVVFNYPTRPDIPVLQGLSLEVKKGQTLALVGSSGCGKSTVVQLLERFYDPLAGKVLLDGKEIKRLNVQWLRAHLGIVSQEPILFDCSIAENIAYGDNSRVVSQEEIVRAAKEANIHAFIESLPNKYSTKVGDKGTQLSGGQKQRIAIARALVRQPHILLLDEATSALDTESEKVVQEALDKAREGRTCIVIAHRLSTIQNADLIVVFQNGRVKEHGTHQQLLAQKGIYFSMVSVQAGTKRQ
T1 sequence (P08183 whole entry): as above

In turn, `CC(C)COCC(CN(Cc1ccccc1)c1ccccc1)N1CCCC1` (stereo not given) [BEPRIDIL] registered an inhibition at 5 ug/mL in series [1] of 100%. For the molecule `CCCNC(=O)NS(=O)(=O)c1ccc(Cl)cc1` [CHLORPROPAMIDE], the Inhibition result in series [2] was “inhibitor [at a rough estimate 90 % inhibition]”. In series [3], `COC(=O)C1=C(C)NC(C)=C(C(=O)OCCN(C)Cc2ccccc2)C1c1cccc([N+](=O)[O-])c1` (stereo not given) [NICARDIPINE] returned an inhibition at 2 ug/mL of 100%. As to `CN1CCN(CCCN2c3ccccc3Sc3ccc(Cl)cc32)CC1` [PROCHLORPERAZINE], in series [4], the Inhibition result is “inhibitor [(at a rough estimate) 80 % inhibition]”. Turning to `CC(CN1c2ccccc2Sc2ccccc21)N(C)C` (stereo not given) [PROMETHAZINE], the Inhibition result in series [5] is “inhibitor [(at a rough estimate) 80 % inhibition]”.
